The text below walks through data of patent US5183828A, “Polyhydroxybenzoic acid derivatives” (priority 1990, dated 1993).

A short description of assay [1]: scavenging of generated tyrosine free radical by pulse radiolysis. The procedure: Additional free radical scavenging potential of a compound of this invention was measured on a generated tyrosine free radical. There is evidence that a tyrosine free radical is formed as part of the mammalian ribonucleotide reductase enzyme during the conversion of ribonucleotides to deoxyribonucleotides--see L. Akerblom, et al. Proc. Natl. Acad. Sci. USA, 78, 2159-2163 (1981). The method for the generation of the tyrosine free radical and its destruction by a compound of this invention was accomplished by pulse radiolysis experiments at Brunel University, […] England on the Brunel 4 MeV linear accelerator using a 1.5 cm optical cell and a 200 ns pulse delivering a dose of approximately 1 krad as measured by thiocyanate dosimetry. All solutions were purged with nitrogen using a syringe-deaerating technique prior to use. The detailed description of the methodology can be found in R. L. Willson, Chemistry and Industry, 183-193 (1977).
For the generation of the tyrosine radical, sodium azide was utilized as an intermediate between the pulse radiolysis generated free electron and tyrosine. […] See also I. K. Larsen et al., Eur. J. Biochem, 125, 75-81 (1982).

A further assay relates to SRS-A biosynthesis. Put plainly: effect of drug on SRS-A biosynthesis. The assay is classed as in vivo. The note with it: 10 mg/kg, i.v.; ovalbumin-sensitized guinea-pigs. The procedure:
Compounds according to this invention were also able to affect SRS-A biosynthesis, also in vivo. In this determination, male Hartley guinea-pigs (200-300 g) were sensitized with a single intraperitoneal injection of ovalbumin (10 mg) in 1 ml of 0.9% w/v NaCl solution (saline). The animals were used for study on days 28-45, following the ovalbumin injection. Guinea-pigs this sensitized were anaesthetized with an intraperitoneal injection of urethane (2 g/kg), and the carotid artery and jugular vein cannulated for measurement of arterial blood pressure and to facilitate intravenous drug administration. Animals were ventilated with a Harvard small animal respirator set at a stroke volume of 2.5 cc and a rate of 40 breaths per min. Ventilatory pressure (cmH2 O) was measured with a Statham pressure transducer from a side arm off the tracheal cannula. […]
Plasma SRS-A was determined as follows: Arterial blood was drawn from the carotid artery of the guinea-pigs into sodium citrate (0.38%) containing indomethacin (10^-4 M). […]
SRS-A was bioassayed on the guinea-pig ileum incubated in Tyrode solution containing 10^-6 M atropine sulphate and 10^-6 M pyrilamine maleate and aerated with 95% O2 and 5% CO2. Changes in tension were measured isotonically with an Adaps rotary motion transducer and recorded on a Linear recorder. […]

The test system of another assay is Colon 38. The experiment in a line: activity vs colon 38 (T/C % median tumor weight), Table 5. The assay is classed as in vivo. How it is done: A compound of this invention was also tested on the solid colon tumor model, colon 38. The tumor was implanted subcutaneously and the drug injected intraperitoneally twice a day on day two (seven hours apart) and twice on day nine. The median tumor weight estimated from tumor diameter is the parameter of tumor inhibition and is measured on day 20. The median tumor weight of treated versus control=T/C percent.

The test system of the next assay is L-1210 Leukemia. Put plainly: activity vs L-1210 leukemia (T/C % survival time), Table 3. The assay is classed as in vivo, mice. The note with it: >130 significant. From the text:
3,4-Dihydroxybenzamidoxime and 3,4,5-trihydroxybenzamidoxime were subjected to a further series of tests against various transplanted tumors in mice according to the following protocols:
For L-1210 lymphoid leukemia, 20 grams CDF1 or BDF1 mice […] ip with 10^5 leukemia cells. The drug was given one day after tumor inoculation continued for an additional eight days. The mean survival time for the treated animal was compared to that of the control group. In the table, column 1 gives the name of the compound, column 2 the dose levels, and column 3 treated over control percent survival time. (In other words, a figure of 175 indicates a 75% increase in survival time.)

The next assay deals with P388 Leukemia. Put plainly: activity vs P388 leukemia (T/C % survival time), Table 6. The assay is classed as in vivo, mice. The note with it: five treatments, >130 significant. The procedure:
The following protocol was used:
CDF1 mice were injected ip with 10^6 cells The drug was administered in the first day after tumor inoculation and continued daily for five treatments. The mean survival time of the treated group compared to the non-treated control group equals T/C×100=T/C percent.

For assay [2], the system named is arachidonic acid induced ear edema. The experiment in a line: arachidonic acid induced ear edema assay, Table 10. The assay is classed as in vivo, Mice. Particulars: Experiment 2, 2 mg total dose, topical. The procedure:
The compounds of this invention because of their ability to scavenge free-radicals in vivo are capable of modulating inflammation as set forth in the following protocol: Mice received the test compound topically to each side of the right ear one hr prior to the inflammatory challenge, at which time they were challenged (except for the negative control) with 10 microliter of a 2 mg/20 microliter solution of arachidonic acid applied to each side of the right ear. One hour post-challenge, the animals were sacrificed, the right ears removed, and an 8 mm disc punched from each. These discs were then weighed. The following table gives the results of this experiment.

“And” between values parts separate entries of the source, which are not always exact repeats. Equal values may be shown once. Where a name gives a salt, the structure may show the parent alone.

As for `NC(=NO)c1ccc(O)c(O)c1` [3,4-dihydroxybenzamidoxime.HCl, 3,4-dihydroxybenzamidoximehydrochloride], in assay [1] (pulse radiolysis), the “rate constant (tyrosine free radical scavenging)” value was 4.5×10^8 M^-1 S^-1. Also, in assay [1] (vs hydroxyurea), the “times faster scavenger of tyrosine free radical than hydroxyurea” value is reported as not below 100 times. The “% Inhibition of SRS-A Biosynthesis” value with SRS-A biosynthesis came out at 25%. Moreover, the “T/C % (median tumor weight, day 20)” value in the assay with Colon 38 (800 mg/kg ip, twice on day two and twice on day nine) was found to be 87%. In addition, the “activity at lower doses” value with Colon 38 (doses lower than 800 mg/kg) is “ineffective”. Further, the “t/c % (mean survival time)” value with L-1210 Leukemia (25 mg/kg) was 130%; in the assay with L-1210 Leukemia (50 mg/kg) it was 137% and 117% and 132% and 146%; in the assay with L-1210 Leukemia (100 mg/kg), 128% and 132% and 141% and 133%; with L-1210 Leukemia (200 mg/kg), 175% and 128% and 155% and 186%; in the assay with L-1210 Leukemia (300 mg/kg) it was 113%.
As to `CCOC(=N)c1cc(O)c(O)c(O)c1` [ethyl 3,4,5-trihydroxybenzamidate-HCl, Ethyl 3,4,5-trihydroxybenzamidate hydrochloride], the “T/C % (mean survival time)” value in the assay with P388 Leukemia (12.5 mg/kg daily) was 104%; in the assay with P388 Leukemia (25 mg/kg daily), 112%; in the assay on P388 Leukemia (50 mg/kg daily) it was 114%; with P388 Leukemia (100 mg/kg daily, listed as ethyl gallamidate.HCl, hydrochloride) it was 129% and 128%; in the assay on P388 Leukemia (200 mg/kg daily, listed as ethyl gallamidate.HCl, hydrochloride) it was 139% and 123%; with P388 Leukemia (400 mg/kg daily, listed as ethyl gallamidate.HCl, hydrochloride) it was 149% and 160%. Besides, the “% Inhibition of SRS-A Biosynthesis” value in the assay on SRS-A biosynthesis is recorded as 29%. Moreover, the “Percent Inhibition vs. positive control” value in assay [2] amounted to 35%. Besides, the “Mean Increase in Weight of Inflammed Ear (± S.E.)” value in assay [2] (positive control 19.0 ± 0.5, p = .000) was 12.3 ± 0.4 mg.
